Here are results for 28 compounds from US9693997B2, “Antiviral compounds” (priority 2013, dated 2017).

Experiment [1] deals with Pseudotyped HCV GT1b particles (HCVpp), entry into Huh7-high CD81 cells. Kind of experiment: microbe, parasite or virus in culture. The format is cell-based, HCV GT1b Con1 strain.
The test system of experiment [2] is pseudotyped VSV G particles (VSVpp) in Huh7-high CD81 cells. As to the kind of experiment: microbe, parasite or virus in culture. The experiment is classed as cell-based, vesicular stomatitis virus. As to conditions: Vesicular stomatitis virus, 72 h, read-out: VSVpp (EC50, μM).
[3] abbreviates: Hepatitis C virus, GT1B, 72 h, read-out: HCVpp GT-1b (EC50, μM).

Structures can show the parent of a compound that is named as a salt. Where two headings read alike, the source gives them in different places.

`Nc1n[nH]c(Nc2cc(F)c(-c3ccc4ccccc4c3)c(C(F)(F)F)c2)n1` [Compound 249, N^5-(3-Fluoro-4-naphthalen-2-yl-5-trifluoromethylphenyl)-1H-[1,2,4]-triazole-3,5-diamine]: the EC50 came to 0.991 µM in experiment [1] (setting [3]) and 17.2 µM in experiment [2].
For `Nc1n[nH]c(Nc2cc(F)c(-c3ccc(S(=O)(=O)C(F)(F)F)cc3)c(C(F)(F)F)c2)n1` [Compound 88, N^5-[6-Fluoro-4′-trifluoromethanesulfonyl-2-trifluoromethylbiphenyl-4-yl]-1H-[1,2,4]-triazole-3,5-diamine] the same measures were 1.95 µM and 25.2 µM.
The like results for `CN(C(C)(C)C)S(=O)(=O)c1cccc(-c2c(Cl)cc(Nc3n[nH]c(N)n3)cc2C(F)(F)F)c1` [Compound 196, 4′-(5-amino-1H-1,2,4-triazol-3-ylamino)-N-tert-butyl-2′-chloro-N-methyl-6′-(trifluoromethyl)biphenyl-3-sulfonamide] were, in that order, 0.126 µM and more than 10 µM.
For `Nc1nc(Nc2cc(Cl)c(-c3ccc4c(c3)NC(=O)CO4)c(C(F)(F)F)c2)n[nH]1` [Compound 47, 6-[4-(5-Amino-1H-[1,2,4]triazol-3-ylamino)-2-chloro-6-trifluoromethyl-phenyl]-4H-benzo[1,4]oxazin-3-one] the same measures were 0.544 µM and 0.82 µM.
On to `CS(=O)(=O)CCCN1CCC(Oc2ccc(-c3c(Cl)cc(Nc4n[nH]c(N)n4)cc3C(F)(F)F)cc2)CC1` [Compound 142, N*3*-{6-Chloro-4′-[1-(3-methanesulfonyl-propyl)-piperidin-4-yloxy]-2-trifluoromethyl-biphenyl-4-yl}-1H-[1,2,4]triazole-3,5-diamine hydrochloride], for which the EC50 in experiment [1] (setting [3]) is 0.242 µM; in experiment [2], more than 10 µM.
With `Nc1n[nH]c(Nc2cc(F)c(-c3cccc(F)c3)c(C(F)(F)F)c2)n1` [Compound 244], the EC50 in experiment [1] (setting [3]) was 0.689 µM; in experiment [2] it was 33.4 µM.
As to `CC1(NS(=O)(=O)c2ccc(-c3c(Cl)cc(Nc4n[nH]c(N)n4)cc3C(F)(F)F)cc2)COC1` [Compound 60, 4′-(5-Amino-1H-[1,2,4]triazol-3-ylamino)-6′-chloro-2′-trifluoromethyl-biphenyl-4-sulfonic acid (3-methyl-oxetan-3-yl)-amide], the results for the half-maximal effective concentration (EC50) in experiment [1] (setting [3]) and in experiment [2] were 0.014 µM and more than 10 µM, respectively.
The like results for `COc1ccc(-c2c(Cl)cc(Nc3n[nH]c(N)n3)cc2C(F)(F)F)cc1S(=O)(=O)NC1(C)CNC1` [Compound 215, 4′-(5-amino-1H-1,2,4-triazol-3-ylamino)-2′-chloro-4-methoxy-N-(3-methylazetidin-3-yl)-6′-(trifluoromethyl)biphenyl-3-sulfonamide hydrochloride] were, in that order, 0.111 µM and more than 10 µM.
For `CNC(=O)c1cccc(-c2c(F)cc(Nc3nc(N)n[nH]3)cc2C(F)(F)F)c1` [Compound 248, 4′-(5-Amino-2H-[1,2,4]-triazol-3-ylamino)-6′-fluoro-2′-trifluoromethyl-biphenyl-43-carboxylic acid methylamide] the same measures were 1.02 µM and more than 10 µM.
The like results for `Nc1nc(Nc2ccc(-c3ccccc3F)c(Cl)c2)n[nH]1` [Compound 146, N*3*-(2-Chloro-2′-fluoro-biphenyl-4-yl)-1H-[1,2,4]triazole-3,5-diamine] were, in that order, 2.88 µM and 29.4 µM.
`CC(C)(C)CCNCCOc1ccc(-c2c(Cl)cc(Nc3n[nH]c(N)n3)cc2C(F)(F)F)cc1` [Compound 136, N*3*-{6-Chloro-4′-[2-(3,3-dimethyl-butylamino)-ethoxy]-2-trifluoromethyl-biphenyl-4-yl}-1H-[1,2,4]triazole-3,5-diamine hydrochloride]: the figures for the EC50 in experiment [1] (setting [3]) and in experiment [2] were 0.005 µM and 3.08 µM, respectively.
In the case of `Nc1nc(Nc2cc(Cl)c(-c3ccc(S(=O)(=O)N4CCC(F)(F)C4)cc3)c(C(F)(F)F)c2)n[nH]1` [Compound 62, N*3*-[6-Chloro-4′-(3,3-difluoro-pyrrolidine-1-sulfonyl)-2-trifluoromethyl-biphenyl-4-yl]-1H-[1,2,4]triazole-3,5-diamine], the EC50 in experiment [1] (setting [3]) was 0.02 µM; in experiment [2] it was more than 10 µM.
In the case of `COC(=O)c1ccc(-c2c(Cl)cc(Nc3n[nH]c(N)n3)cc2Cl)cc1` [Compound 110, 4′-(5-Amino-1H-[1,2,4]triazol-3-ylamino)-2′,6′-dichloro-biphenyl-4-carboxylic acid methyl ester], the EC50 in experiment [1] (setting [3]) turned out to be 0.1 µM; in experiment [2], 25 µM.
The like results for `CS(=O)(=O)NCCc1ccc(-c2c(Cl)cc(Nc3n[nH]c(N)n3)cc2C(F)(F)F)cc1` [Compound 38, N-{2-[4′-(5-Amino-1H-[1,2,4]triazol-3-ylamino)-2′-chloro-6′-trifluoromethyl-biphenyl-4-yl]-ethyl}-methanesulfonamide] were, in that order, 0.087 µM and 7.01 µM.
Consider `CN(C)C(=O)c1ccc(-c2c(Cl)cc(Nc3n[nH]c(N)n3)cc2Cl)cc1` [Compound 113, 4′-(5-Amino-1H-[1,2,4]triazol-3-ylamino)-2′,6′-dichloro-biphenyl-4-carboxylic acid dimethylamide], for which the EC50 in experiment [1] (setting [3]) turned out to be 0.079 µM; in experiment [2] it was 43.2 µM.
As to `CC1(O)CCN(S(=O)(=O)c2ccc(-c3c(Cl)cc(Nc4n[nH]c(N)n4)cc3C(F)(F)F)cc2)CC1` [Compound 66, 1-[4′-(5-Amino-1H-[1,2,4]triazol-3-ylamino)-6′-chloro-2′-trifluoromethyl-biphenyl-4-sulfonyl]-4-methyl-piperidin-4-ol], the results for the EC50 in experiment [1] (setting [3]) and in experiment [2] were 0.101 µM and 7.32 µM, respectively.
`Nc1nc(Nc2cc(Cl)c(-c3ccc(C(=O)O)cc3)c(C(F)(F)F)c2)n[nH]1` [Compound 202, 4′-(5-amino-1H-1,2,4-triazol-3-ylamino)-2′-chloro-6′-(trifluoromethyl)biphenyl-4-carboxylic acid 2,2,2-trifluoroacetate]: the EC50 is 1.25 µM in experiment [1] (setting [3]) and more than 10 µM in experiment [2].
For `Nc1nc(Nc2cc(Cl)c(-c3ccc(NC(=O)C4CCC(F)(F)CC4)cc3)c(C(F)(F)F)c2)n[nH]1` [Compound 235, 4,4-Difluorocyclohexanecarboxylic acid [4′-(5-amino-1H-[1,2,4]triazol-3-ylamino)-2′-chloro-6′-trifluoromethyl-biphenyl-4-yl]-amide] the same measures were 0.012 µM and more than 10 µM.
As for `CC1(C)CS(=O)(=O)c2cc(-c3c(Cl)cc(Nc4n[nH]c(N)n4)cc3Cl)ccc2O1` [Compound 52, N*3*-[3,5-Dichloro-4-(2,2-dimethyl-4,4-dioxo-3,4-dihydro-2H-4lambda*6*-benzo[1,4]oxathiin-6-yl)-phenyl]-1H-[1,2,4]triazole-3,5-diamine], the figures for the EC50 in experiment [1] (setting [3]) and in experiment [2] were 0.64 µM and more than 10 µM, respectively.
As to `Nc1nc(Nc2cc(Cl)c(-c3ccc(S(=O)(=O)N4CCC(O)CC4)cc3)c(C(F)(F)F)c2)n[nH]1` [Compound 194, 1-(4′-(5-amino-1H-1,2,4-triazol-3-ylamino)-2′-chloro-6′-(trifluoromethyl)biphenyl-4-ylsulfonyl)piperidin-4-ol], the EC50 in experiment [1] (setting [3]) was 0.115 µM; in experiment [2], 22.8 µM.
Consider `Nc1nc(Nc2ccc(-c3ccc(F)cc3)c(C(F)(F)F)c2)n[nH]1` [Compound 151, N*3*-(4′-Fluoro-2-trifluoromethyl-biphenyl-4-yl)-1H-[1,2,4]triazole-3,5-diamine], for which the EC50 in experiment [1] (setting [3]) worked out at 0.356 µM; in experiment [2], 26.5 µM.
The like results for `Nc1nc(Nc2cc(Cl)c(-c3ccc(S(=O)(=O)C4CCN(CCC(F)(F)F)CC4)cc3)c(C(F)(F)F)c2)n[nH]1` [Compound 4, N*3*-{2-Chloro-6-trifluoromethyl-4′-[1-(3,3,3-trifluoro-propyl)-piperidine-4-sulfonyl]-biphenyl-4-yl}-1H-[1,2,4]triazole-3,5-diamine; hydrochloride] were, in that order, 0.005 µM and more than 10 µM.
In the case of `Nc1nc(Nc2cc(Cl)c(-c3ccc(S(=O)(=O)N4CC(F)C4)cc3)c(C(F)(F)F)c2)n[nH]1` [Compound 233, N*3*-[6-Chloro-4′-(3-fluoro-azetidine-1-sulfonyl)-2-trifluoromethyl-biphenyl-4-yl]-1H-[1,2,4]triazole-3,5-diamine], the EC50 in experiment [1] (setting [3]) was 0.051 µM; in experiment [2], more than 10 µM.
Turning to `CC(C)(C)OC(=O)N1CC(S(=O)(=O)c2ccc(-c3c(Cl)cc(Nc4n[nH]c(N)n4)cc3C(F)(F)F)cc2)C1` [Compound 59, 3-[4′-(5-Amino-1H-[1,2,4]triazol-3-ylamino)-6′-chloro-2′-trifluoromethyl-biphenyl-4-sulfonyl]-azetidine-1-carboxylic acid tert-butyl ester], the EC50 in experiment [1] (setting [3]) is 0.008 µM; in experiment [2] it was 5.78 µM.
On to `Nc1nc(Nc2ccc(-c3ccccc3F)c(C(F)(F)F)c2)n[nH]1` [Compound 150, N*3*-(2′-Fluoro-2-trifluoromethyl-biphenyl-4-yl)-1H-[1,2,4]triazole-3,5-diamine], for which the EC50 came out at 0.866 µM in experiment [1] (setting [3]) and 21.3 µM in experiment [2].
In the case of `CC(C)(C)CCN1CCCC(Oc2ccc(-c3c(Cl)cc(Nc4n[nH]c(N)n4)cc3C(F)(F)F)cc2)C1` (centres unmarked) [Compound 131, N*3*-{6-Chloro-4′-[1-(3,3-dimethyl-butyl)-piperidin-3-yloxy]-2-trifluoromethyl-biphenyl-4-yl}-1H-[1,2,4]triazole-3,5-diamine hydrochloride], the EC50 in experiment [1] (setting [3]) was 0.095 µM; in experiment [2], 7.02 µM.
With `Nc1nc(Nc2cc(Cl)c(-c3ccc(OC[C@H]4CCCN4)cc3)c(Cl)c2)n[nH]1` [Compound 272, N*3*-[2,6-Dichloro-4′-((R)-1-pyrrolidin-2-ylmethoxy)-biphenyl-4-yl]-1H-[1,2,4]triazole-3,5-diamine], the EC50 in experiment [1] (setting [3]) stood at 0.147 µM; in experiment [2], 4.49 µM.
Regarding `CC(C)S(=O)(=O)c1ccc(-c2c(Cl)cc(Nc3n[nH]c(N)n3)cc2C(F)(F)F)cc1` [Compound 228, N*3*-[6-Chloro-4′-(propane-2-sulfonyl)-2-trifluoromethyl-biphenyl-4-yl]-1H-[1,2,4]triazole-3,5-diamine], the EC50 was 0.042 µM in experiment [1] (read-out: HCVpp GT-1b (EC50)) and 7.52 µM in experiment [2].

By EC50 is commonly meant the concentration that produces a half-maximal response.
